Measured values taken from patent US8906925B2, “Pyrido[4,3-B]indoles containing rigid moieties” (Medivation Technologies, Inc., priority 2008, dated 2014).

Tests used:
C57B1I6J mice = assay: Catalepsy in the mouse bar test (EPS model); type: in vivo; conditions: for effects on catalepsy, ANOVA: 0.03, 0.1, 0.3, 1, 3, 10, 30 oral, 30 min, 1 h, and 3 h, incl. haloperidol group
Description: Antipsychotic drugs are known to induce extrapyramidal syndrome (EPS) in animals and in humans. An animal model considered to be predictive of EPS is the mouse bar test, which measures cataleptic responses to pharmacological agents.
(§1) Male C57B1I6J mice from Jackson Laboratories (Bar Harbor, Me.) were used. Mice were received at 6-weeks of age. Upon receipt, mice were assigned unique identification numbers (tail marked) and were group housed with 4 mice/cage in OptiMICE ventilated cages. All animals remained housed in groups of four during the remainder of the study. All mice were acclimated to the colony room for at least two weeks prior to testing and were subsequently tested at an average age of 8 weeks. During the period of acclimation, mice were examined on a regular basis, handled, and weighed to assure adequate health and suitability. Animals were maintained on a 12 h/12 h light/dark cycle. The room temperature was maintained between 20 and 23° C. with a relative humidity maintained between 30% and 70%. Chow and water were provided ad libitum for the duration of the study. In each test, animals were randomly assigned across treatment groups.
The following compounds were used for this study. 1) Compound No. 83, 88 or 90 (0.03, 0.1, 0.3, 1, 3, 10, 30) was dissolved in 3% Tween in PBS and administered orally at a dose volume of 10 mL/kg; 2) Haloperidol (2 mg/kg) was dissolved in 10% DMSO and administered i.p. at a dose volume of 10 mL/kg.
The front paws of a mouse were placed on a horizontal metal bar raised 2″ above a Plexiglas platform and time was recorded for up to 30 seconds per trial. The test ended when the animal's front paws returned to the platform or after 30 seconds. The test was repeated three times and the average of the three trials was reported as the intensity index of catalepsy. Antipsychotic agents such as haloperidol cause rigidity as a side effect. Animals treated with haloperidol will hold on to the bar without moving for several minutes. Mice were brought to the activity experimental room for at least 1 h acclimation to the experimental room conditions prior to testing. Following injection of either vehicle, Compound No. 83, 88 or 90, or haloperidol, catalepsy was assessed at 3 time points: 30 min, 1 h, and 3 h. At the end of each trial, the apparatus was thoroughly cleaned with 70% ethanol.
Data were analyzed by analysis of variance (ANOVA) followed by post-hoc comparisons with Fisher Tests when appropriate. An effect was considered significant if p<0.05.

C57Bl/6J mice = assay: PCP-induced hyperactivity, open field test; type: in vivo, mouse; conditions: p.o. 30 min prior to PCP (5.0 mg/kg i.p.), 90 min. test
Protocol: One exemplary model for testing the activity of one or more compounds described herein to treat and/or prevent and/or delay the onset and/or development of schizophrenia employs phencyclidine (PCP), which is administered to the animal (e.g., non-primate (rat) or primate (monkey)), resulting in dysfunctions similar to those seen in schizophrenic humans. See Jentsch et al., 1997, Science 277:953-955 and Piercey et al., 1988, Life Sci. 43(4):375-385). Standard experimental protocols may be employed in this or in other animal models. One protocol involves PCP-induced hyperactivity.
as §1, with “C57Bl/6J” for “C57B1I6J”, “OPTIMICE” for “OptiMICE”, “weeks of age.” for “weeks.”, “Food” for “Chow”
The following compounds were used for this study: 1) Compound Nos 83, 88, 90 (0.03, 0.1, 0.3, 1, 3, 10 & 30 mg/kg) was dissolved in 5% PEG-200 in sterile water and administered p.o. 30 min prior to PCP injection; 2) Clozapine (1.0 mg/kg) was dissolved in 10% DMSO and administered i.p. 30 min prior to phencyclidine (PCP) injection; 3) PCP (5.0 mg/kg) was dissolved in sterile water and administered i.p. immediately before the 60 min. test. All compounds were administered at a dose volume of 10 mL/kg.
The open filed (OF) test assesses locomotor behavior, i.e. to measure mouse locomotor activity at baseline and in response to pharmacological agents. The open field chambers are Plexiglas square chambers (27.3×27.3×20.3 cm; Med Associates Inc., St Albans, Vt.) surrounded by infrared photobeams (16×16×16) to measure horizontal and vertical activity. […] Distance traveled was measured from horizontal beam breaks as the mouse moved whereas rearing activity was measured from vertical beam breaks. […]
Data were analyzed by analysis of variance (ANOVA) followed by post-hoc comparisons with Fisher Tests when appropriate. Baseline activity was measured during the first 30 min. of the test prior to PCP injection. PCP-induced activity was measured during the 60 min. following PCP injection. […]

Row | Structure (SMILES) | sedation observed in bar test (C57B1I6J mice; 10 mg/kg, oral) | effects on catalepsy, ANOVA (C57B1I6J mice) | sedation observed in bar test (C57B1I6J mice; 30 mg/kg, oral) | Total Distance Traveled (center+periphery), ANOVA (C57Bl/6J mice) | Total Rearing (center+periphery), ANOVA (C57Bl/6J mice) | other effects in bar test (C57B1I6J mice; doses other than 30 mg/kg, oral) | latency to hold the bar (C57B1I6J mice; 10 mg/kg, oral)
1 | C/C(=C\n1c2c(c3cc(Cl)ccc31)CN(C)CC2)c1ccc(F)cc1 [Compound 83, (E)-8-chloro-5-(2-(4-fluorophenyl)prop-1-enyl)-2,3,4,5-tetrahydro-2-methyl-1H-pyrido[4,3-b]indole] | also caused sedation, but at lower levels | significant treatment effect | caused sedation | significant treatment effect | significant treatment effect |  | 
2 | C/C(=C\n1c2c(c3cc(C)ccc31)CN(C)CC2)c1ccncc1 [Compound 88, (E)-2,3,4,5-tetrahydro-2,8-dimethyl-5-(2-(pyridin-4-yl)prop-1-enyl)-1H-pyrido[4,3-b]indole] |  | significant treatment effect | caused sedation | significant treatment effect |  | No other effects | 
3 | C/C(=C\n1c2c(c3cc(Cl)ccc31)CN(C)CC2)c1ccncc1 [Compound 90, (E)-8-chloro-2,3,4,5-tetrahydro-2-methyl-5-(2-(pyridin-4-yl)prop-1-enyl)-1H-pyrido[4,3-b]indole] | also caused sedation, but at lower levels | significant treatment effect | caused high levels of sedation | significant treatment effect |  |  | increase
